# According to US12594276B2, “Inhibitors of human immunodeficiency virus replication” (ViiV Healthcare UK (No.5) Limited, priority 2024, dated 2026):
# pEC50: −log10 of the molar value.
# Assays:
# [1] = system: recombinant NL4-3 virus (nef section replaced with Renilla luciferase gene) in MT-2 cells; test: HIV cell culture assay (antiviral activity, luciferase readout); type: cell-based; conditions: Renilla, NL43, MT-2 cells infected for 4-5 days with recombinant NL4-3 Renilla luciferase virus
# How it was run: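 Antiviral EC50 derived from luciferase signal using the exponential median effect equation. Infection of MT-2 cells ran 4-5 days alongside serial dilutions of compound, with virus generated by proviral clone transfection of 293T cells.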
# [2] = Compound cytotoxicity, XTT-based colorimetric assay; type: cell-based; conditions: human; uninfected MT2 cells, day 4, XTT; read-out: CC50
# How it was run: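 Uninfected MT2 cells were treated with compound under the same protocol as the antiviral assay. Viability was read on day 4 with an XTT colorimetric assay, from which CC50 values were derived.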
Structure (SMILES),pEC50 [1],CC50 at 4 days [2] [pM]
"CS(=O)(=O)Nc1nn(CCN2CC3C(C2)C(F)(F)C3(F)F)c2c(-n3c([C@H](Cc4cc(F)cc(F)c4)NC(=O)Cn4nc(C(F)F)c5c4C(F)(F)[C@@H]4C[C@H]54)nc4nc(C5CCC(F)(F)CC5)ccc4c3=O)ccc(Cl)c12 (stereo partly drawn) [Example 214, N-[(1S)-1-[(3P)-3-[4-chloro-3-methanesulfonamido-1-(2-{6,6,7,7-tetrafluoro-3-azabicyclo[3.2.0]heptan-3-yl}ethyl)-1H-indazol-7-yl]-7-(4,4-difluorocyclohexyl)-4-oxo-3H,4H-pyrido[2,3-d]pyrimidin-2-yl]-2-(3,5-difluorophenyl)ethyl]-2-[(2S,4R)-9-(difluoromethyl)-5,5-difluoro-7,8-diazatricyclo[4.3.0.0^2,^4]nona-1(6),8-dien-7-yl]acetamide]",10.82,> 50000
"Cc1cc(C2CCC(F)(F)CC2)nc2nc([C@H](Cc3cc(F)cc(F)c3)NC(=O)Cn3nc(C4CC4)c4c3C[C@@H]3C[C@H]43)n(-c3ccc(Cl)c4c(NS(C)(=O)=O)nn(CCN5C[C@@H](C)OC(C)(C)C5)c34)c(=O)c12 (atropisomer, axis not shown; (P)) [Example 459, N-[(1S)-1-[(3P)-3-(4-chloro-3-methanesulfonamido-1-{2-[(6R)-2,2,6-trimethylmorpholin-4-yl]ethyl}-1H-indazol-7-yl)-7-(4,4-difluorocyclohexyl)-5-methyl-4-oxo-3H,4H-pyrido[2,3-d]pyrimidin-2-yl]-2-(3,5-difluorophenyl)ethyl]-2-[(2S,4S)-9-cyclopropyl-7,8-diazatricyclo[4.3.0.0^2,^4]nona-1(6),8-dien-7-yl]acetamide]",11.30,> 20000
"COCCCn1nc(NS(C)(=O)=O)c2c(Cl)ccc(-n3c([C@H](Cc4cc(F)cc(F)c4)NC(=O)Cn4nc(C5CC5)c5c4C[C@@H]4C[C@H]54)nc4nc(C5CCC(F)(F)CC5)cc(C5CC5)c4c3=O)c21 (atropisomer, axis not shown; (P)) [Example 376, N-[(1S)-1-[(3P)-3-[4-chloro-3-methanesulfonamido-1-(3-methoxypropyl)-1H-indazol-7-yl]-5-cyclopropyl-7-(4,4-difluorocyclohexyl)-4-oxo-3H,4H-pyrido[2,3-d]pyrimidin-2-yl]-2-(3,5-difluorophenyl)ethyl]-2-[(2S,4S)-9-cyclopropyl-7,8-diazatricyclo[4.3.0.0^2,^4]nona-1(6),8-dien-7-yl]acetamide]",10.80,> 20000
"COCCCn1nc(NS(C)(=O)=O)c2c(Cl)ccc(-n3c([C@H](Cc4cc(F)cc(F)c4)NC(=O)Cn4nc(C(F)F)c5c4C(F)(F)[C@@H]4C[C@H]54)nc4nc(C5CCC(F)(F)CC5)cc(NCCC5CCCCO5)c4c3=O)c21 (stereo partly drawn) [Example 563, N-[(1S)-1-[(3P)-3-[4-chloro-3-methanesulfonamido-1-(3-methoxypropyl)-1H-indazol-7-yl]-7-(4,4-difluorocyclohexyl)-5-{[2-(oxan-2-yl)ethyl]amino}-4-oxo-3H,4H-pyrido[2,3-d]pyrimidin-2-yl]-2-(3,5-difluorophenyl)ethyl]-2-[(2S,4R)-9-(difluoromethyl)-5,5-difluoro-7,8-diazatricyclo[4.3.0.0^2,^4]nona-1(6),8-dien-7-yl]acetamide]",10.72,> 20000
"C[C@@H]1CN(CCn2nc(NS(C)(=O)=O)c3c(Cl)ccc(-n4c([C@H](Cc5cc(F)cc(F)c5)NC(=O)Cn5nc(C(F)F)c6c5C(F)(F)[C@@H]5C[C@H]65)nc5nc(C6CCC(F)(F)CC6)ccc5c4=O)c32)CCO1 (atropisomer, axis not shown; (P)) [Example 360]",11.00,> 50000
"C[C@@H]1CN(Cc2cc(C3CCC(F)(F)CC3)nc3nc([C@H](Cc4cc(F)cc(F)c4)NC(=O)Cn4nc(C(F)F)c5c4C(F)(F)[C@@H]4C[C@H]54)n(-c4ccc(Cl)c5c(NS(C)(=O)=O)nn(CCN6C[C@H](F)C[C@H](F)C6)c45)c(=O)c23)C[C@H](C)O1 (atropisomer, axis not shown; (P)) [Example 526, N-[(1S)-1-[(3P)-3-(4-chloro-1-{2-[(3R,5S)-3,5-difluoropiperidin-1-yl]ethyl}-3-methanesulfonamido-1H-indazol-7-yl)-7-(4,4-difluorocyclohexyl)-5-{[(2R,6S)-2,6-dimethylmorpholin-4-yl]methyl}-4-oxo-3H,4H-pyrido[2,3-d]pyrimidin-2-yl]-2-(3,5-difluorophenyl)ethyl]-2-[(2S,4R)-9-(difluoromethyl)-5,5-difluoro-7,8-diazatricyclo[4.3.0.0^2,^4]nona-1(6),8-dien-7-yl]acetamide]",10.85,> 20000
"Cc1cc(C2(F)CCC(F)(F)CC2)nc2nc([C@H](Cc3cc(F)cc(F)c3)NC(=O)Cn3nc(C(F)F)c4c3C(F)(F)[C@@H]3C[C@H]43)n(-c3ccc(Cl)c4c(NS(C)(=O)=O)nn(CCN5CCO[C@H](C(C)C)C5)c34)c(=O)c12 (atropisomer, axis not shown; (P)) [Example 575, N-[(1S)-1-[(3P)-3-(4-chloro-3-methanesulfonamido-1-{2-[(2R)-2-(propan-2-yl)morpholin-4-yl]ethyl}-1H-indazol-7-yl)-5-methyl-4-oxo-7-(1,4,4-trifluorocyclohexyl)-3H,4H-pyrido[2,3-d]pyrimidin-2-yl]-2-(3,5-difluorophenyl)ethyl]-2-[(2S,4R)-9-(difluoromethyl)-5,5-difluoro-7,8-diazatricyclo[4.3.0.0^2,^4]nona-1(6),8-dien-7-yl]acetamide]",10.92,> 20000
"COCCNc1cc(C2CCC(F)(F)CC2)nc2nc([C@H](Cc3cc(F)cc(F)c3)NC(=O)Cn3nc(C(F)F)c4c3C(F)(F)[C@@H]3C[C@H]43)n(-c3ccc(Cl)c4c(NS(C)(=O)=O)nn(CCN5CCC(F)CC5)c34)c(=O)c12 (atropisomer, axis not shown; (P)) [Example 415, N-[(1S)-1-[(3P)-3-{4-chloro-1-[2-(4-fluoropiperidin-1-yl)ethyl]-3-methanesulfonamido-1H-indazol-7-yl}-7-(4,4-difluorocyclohexyl)-5-[(2-methoxyethyl)amino]-4-oxo-3H,4H-pyrido[2,3-d]pyrimidin-2-yl]-2-(3,5-difluorophenyl)ethyl]-2-[(2S,4R)-9-(difluoromethyl)-5,5-difluoro-7,8-diazatricyclo[4.3.0.0^2,^4]nona-1(6),8-dien-7-yl]acetamide]",10.89,> 20000
"Cc1cc(C2(F)CCC(F)(F)CC2)nc2nc([C@H](Cc3cc(F)cc(F)c3)NC(=O)Cn3nc(C(F)(F)F)c4c3C[C@@H]3C[C@H]43)n(-c3ccc(Cl)c4c(NS(C)(=O)=O)nn(CCN5C[C@@H](C)O[C@@H](C)C5)c34)c(=O)c12 (atropisomer, axis not shown; (P)) [Example 597, N-[(1S)-1-[(3P)-3-(4-chloro-1-{2-[(2R,6S)-2,6-dimethylmorpholin-4-yl]ethyl}-3-methanesulfonamido-1H-indazol-7-yl)-5-methyl-4-oxo-7-(1,4,4-trifluorocyclohexyl)-3H,4H-pyrido[2,3-d]pyrimidin-2-yl]-2-(3,5-difluorophenyl)ethyl]-2-[(2S,4S)-9-(trifluoromethyl)-7,8-diazatricyclo[4.3.0.0^2,^4]nona-1(6),8-dien-7-yl]acetamide]",10.68,> 20000
"COCCCn1nc(NS(C)(=O)=O)c2c(Cl)ccc(-n3c([C@H](Cc4cc(F)cc(F)c4)NC(=O)Cn4nc(C5CC5)c5c4C[C@@H]4C[C@H]54)nc4nc(C5CCC(F)(F)CC5)cc(CN5CC(F)(F)C5)c4c3=O)c21 (atropisomer, axis not shown; (P)) [Example 603, N-[(1S)-1-[(3P)-3-[4-chloro-3-methanesulfonamido-1-(3-methoxypropyl)-1H-indazol-7-yl]-5-[(3,3-difluoroazetidin-1-yl)methyl]-7-(4,4-difluorocyclohexyl)-4-oxo-3H,4H-pyrido[2,3-d]pyrimidin-2-yl]-2-(3,5-difluorophenyl)ethyl]-2-[(2S,4S)-9-cyclopropyl-7,8-diazatricyclo[4.3.0.0^2,^4]nona-1(6),8-dien-7-yl]acetamide]",11.40,> 20000
"Cc1cc(C2CCC(F)(F)CC2)nc2nc([C@H](Cc3cc(F)cc(F)c3)NC(=O)Cn3nc(C4CC4)c4c3C[C@@H]3C[C@H]43)n(-c3ccc(Cl)c4c(NS(C)(=O)=O)nn(CCN5CC6(CCC6)OC6(CCC6)C5)c34)c(=O)c12 (atropisomer, axis not shown; (P)) [Example 445, N-[(1S)-1-[(3P)-3-[4-chloro-3-methanesulfonamido-1-(2-{5-oxa-11-azadispiro[3.1.3^6.3^4]dodecan-11-yl}ethyl)-1H-indazol-7-yl]-7-(4,4-difluorocyclohexyl)-5-methyl-4-oxo-3H,4H-pyrido[2,3-d]pyrimidin-2-yl]-2-(3,5-difluorophenyl)ethyl]-2-[(2S,4S)-9-cyclopropyl-7,8-diazatricyclo[4.3.0.0^2,^4]nona-1(6),8-dien-7-yl]acetamide]",10.82,> 20000
"COCCCn1nc(NS(C)(=O)=O)c2c(Cl)ccc(-n3c([C@H](Cc4cc(F)cc(F)c4)NC(=O)Cn4nc(C(F)F)c5c4C(F)(F)[C@@H]4C[C@H]54)nc4nc(C5CCC(F)(F)CC5)cc(NCCc5ccn(C)n5)c4c3=O)c21 (atropisomer, axis not shown; (P)) [Example 543, N-[(1S)-1-[(3P)-3-[4-chloro-3-methanesulfonamido-1-(3-methoxypropyl)-1H-indazol-7-yl]-7-(4,4-difluorocyclohexyl)-5-{[2-(1-methyl-1H-pyrazol-3-yl)ethyl]amino}-4-oxo-3H,4H-pyrido[2,3-d]pyrimidin-2-yl]-2-(3,5-difluorophenyl)ethyl]-2-[(2S,4R)-9-(difluoromethyl)-5,5-difluoro-7,8-diazatricyclo[4.3.0.0^2,^4]nona-1(6),8-dien-7-yl]acetamide]",10.85,> 20000
